We go through two compounds from US20040141939A1, “Cosmetic or dermatological use of peptides for promoting adhesion between skin cells” (priority 2001, published 2004).

Data set [1] concerns fibroblasts and keratinocytes in culture. In words: Peptide applied to fibroblasts and keratinocytes in culture, HPLC analysis of the culture medium. Type of data set: in vitro ADME, human. The settings on record: in a few hours. As to the method:
A test is carried out by applying the peptide to the fibroblasts and to the keratinocytes in culture.
This assumption is then consolidated by the tests of effectiveness exposed in the following examples.

A short description of data set [2]: Stability of the peptide by HPLC at various temperatures. The following applies: 10^-4 M; after 8 days at 25° C. Type of data set: physicochemical. As to the method:
The Peptide Lys-Leu-Asp-Ala-Pro-Thr was analyzed with a concentration of 10^-4 M by HPLC on a column of the C18 type, and with a linear gradient water/TFA 0.1%-acetonitril/TFA 0.1%.

The nature of data set [3]: Stability of the peptide in culture medium conditioned by human fibroblasts and keratinocytes (released degradation enzymes), HPLC. Type of data set: in vitro ADME. The following applies: medium from human fibroblasts and keratinocytes cultivated 24 hours at 37° C.; after 24 hours with peptide. As to the method: Human fibroblasts and keratinocytes were cultivated during 24 hours at 37° C. and 5% of CO2. For this period, the cells will release many degradation enzymes in the culture medium. Thereafter, the culture medium is removed to be put in the presence of the peptide.

The subject of data set [4] is keratinocytes. In words: Adhesion of keratinocytes to pre-treated 96 wells micro-plates (MTT, OD 560 nm against 630 nm). The following applies: Condition C: wells pre-treated 12 hours at 50 ppm; 3 hours contact with keratinocytes. In kind it is cell-based. As to the method: The study is carried out in 96 wells micro-plates on keratinocytes cultured in an incubator at 37° C. and 5% of CO2.
The wells of these plates are pre-treated, for 12 hours, in different ways; four conditions have been realized:
Condition A: negative control, not containing peptide;
Condition B: incubated with various peptides, made up from 3 to 25 amino acids, with a concentration of 35 ppm;
Condition C: incubated with fibronectin with a concentration of 50 ppm;
Condition D: incubated with the peptide of sequence Lys-Leu-Asp-Ala-Pro-Thr to a concentration of 5 ppm.
After 3 hours of contact with the keratinocytes, the wells are completely filled with medium, hermetically closed, turned over and agitated on a three-dimensional agitator during 20 minutes. Then the plates are emptied and the remaining medium is aspired. Then, 100 μl of MTT with 1 mg/ml are added by wells and are left for 3 hours at 37° C. and 5% CO2. The solution is finally withdrawn, then 100 μl of DMSO is added. A reading of the OD is made at 560 nm against 630 nm.
The OD is proportional to the quantity of viable cells, i.e. which adhered to the micro-plates.

Peptide text beside a SMILES is read from it.

Regarding `CC(C)C[C@H](NC(=O)[C@@H](N)CCCCN)C(=O)N[C@@H](CC(=O)O)C(=O)N[C@@H](C)C(=O)N1CCC[C@H]1C(=O)N[C@H](C(=O)O)[C@@H](C)O` [Lys-Leu-Asp-Ala-Pro-Thr] (H-KLDAPT-OH; N-terminus and C-terminus assumed), the “peptide concentration in culture medium” value in data set [1] is reported as “decreases quickly”. Besides, the “peptide degradation (HPLC)” value in data set [2] was “no peptide degradation”. Further, the “degradation of peptide in conditioned culture medium” value in data set [3] was “almost no degradation”.

Regarding fibronectin, the “O.D. (adhered viable cells)” value in data set [4] worked out at 0.770.
